# Laboratory results: patent publication US9932333B2, “Benzothiazole compound and medicine containing same” (JAPAN SCIENCE AND TECHNOLOGY AGENCY, priority 2014, dated 2018)
# Square brackets hold non-standard residues; d marks the D form. Peptide text beside a SMILES is read from it. * marks the point of attachment. X1 = C[n+]1c(-c2ccc3c(c2)CCCN3CCCCCC(=O)*)sc2cc(Br)ccc21; dBip = N[C@H](Cc1ccc(-c2ccccc2)cc1)C(=O)O
# What was measured:
# Aβ1-42 = Aβ1-42 (Homo sapiens, UniProt P05067); assay: Oxygenation of Aβ1-42 in cell culture medium; assay type: biochemical; settings: 50 mmol %, light 500 nm, 30 minutes, medium containing 0.1% horse serum
# Sequence of Aβ1-42 (P05067 672-713 limits assumed): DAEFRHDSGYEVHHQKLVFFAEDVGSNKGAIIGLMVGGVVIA
# Text: Then, the reaction was monitored with a mass spectrometer (MALDI-TOF MS).
# PC12 cells = assay type: cell-based, rat
# Description: The solution was added at 50 μL/well to rat adrenal medulla-derived pheochromocytoma PC12 cells (purchased from RIKEN, Japan) inoculated to a poly-D-lysine-coated 96-well plate and similarly reacted. The reaction solution in each well was diluted with 50 μL of a Dulbecco's modified eagle's medium containing 0.1% horse serum (final concentration of Aβ: 10 μM) and then incubated at 37° C. for 48 hours in a 5% CO2 atmosphere. A live cell count measurement reagent SF containing WST-8 (10 μL; purchased from Nacalai Tesque, Inc.) was added to each well, and the mixture was incubated at 37° C. for 3 hours in a 5% CO2 atmosphere. Then, the cell viability was measured from absorbance at 450 nm (reference wavelength: 655 nm).
# [1] = molecular target: Aβ1-42 aggregated in advance (Homo sapiens, UniProt P05067); assay: Aβ affinity (Kd association curve from fluorescence intensity); assay type: binding; settings: aggregated Aβ1-42 0.5 μM, phosphate buffer pH 7.4, room temperature 1 hour
# Sequence of Aβ1-42 aggregated in advance (P05067 672-713 limits assumed): as above
# Text: For compound (1a), the excitation wavelength was set to 460 nm, and the fluorescence wavelength was set to 515 nm. A Kd association curve was obtained from the fluorescence intensity using KaleidaGraph 4.5 (Synergy Software, Reading, Pa.).
# angiotensin IV = angiotensin IV (Homo sapiens, UniProt P01019); assay: Oxidation reaction of angiotensin IV (Example 3); assay type: biochemical; settings: light irradiation 1.5 hours, neutral buffer, 37° C.
# Text: (§1) Then, the reaction was monitored with a mass spectrometer (MALDI-TOF MS) or LC/MS (ESI-Q).
# methionine enkephalin = methionine enkephalin (Homo sapiens, UniProt P01210); assay: Oxidation reaction of methionine enkephalin (Example 3); assay type: biochemical; settings: light irradiation 1.5 hours, neutral buffer, 37° C.
# Text: as §1
# amylin = molecular target: T1, amylin (Homo sapiens, UniProt P10997); assay: Oxidation reaction of amylin; assay type: biochemical; settings: pre-incubation 0 h
# T1 construct: amylin, a hormone essential for glycemic control
# T1 sequence (P10997 34-70 limits assumed): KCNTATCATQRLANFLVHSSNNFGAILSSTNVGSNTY
# Description: as §1
# The amino acid analysis of oxidized Aβ1-42 and oxidized amylin (carried out by Peptide Institute, Inc.) was conducted. The oxidized Aβ1-42 and the oxidized amylin were enzymatically digested with endopeptidase Lys-C and chymotrypsin, respectively, and the obtained digests were analyzed with a mass spectrometer (MALD-TOF MS) and LC/MS/MS (ESI-Q-TOF).
compound,measurement,setting,value
CC(C)C[C@@H](NC(=O)[C@@H](CCCCN)NC(=O)CCCCCN1CCCc2cc(-c3sc4cc(Br)ccc4[n+]3C)ccc21)C(=O)N[C@@H](C(=O)N[C@H](Cc1ccc(-c2ccccc2)cc1)C(=O)N[C@H](Cc1ccccc1)C(=O)O)C(C)C [1e] (X1-[dK][dL][dV][dBip][dF]-OH),oxygenation of Aβ in a cell medium,Aβ1-42,approximately 40%
same,phototoxicity (cell viability),PC12 cells,no phototoxicity
C[n+]1c(-c2cc3c4c(c2)CCCN4CCC3)sc2cc(Br)ccc21 [compound (1a)],Kd,[1],1.1 µM
"Cc1cc2nc3c(=O)[nH]c(=O)nc-3n(C[C@H](O)[C@H](O)[C@H](O)CO)c2cc1C [riboflavin, reference compound]",oxygenation of angiotensin IV,angiotensin IV,approximately 40%
same,oxygenation of methionine enkephalin,methionine enkephalin,~60%
same,oxygenation of amylin in a monomeric state,amylin,high oxidative activity against monomeric amylin
